Assay results as given in article PMC4770715, “LIM kinase inhibitors disrupt mitotic microtubule organization and impair tumor cell proliferation” (Oncotarget, 2015).

What was measured:
Test in all cases: biochemical
Parameters in all cases: KINOMEscan active-site competition binding, percent of control (100 = no competition)
Settings in all cases: competition binding, percent control
JNK2 = biological target: T1, JNK2 (Homo sapiens, UniProt P45984)
T1 construct: gene MAPK9

AURKC = AURKC (Homo sapiens, UniProt Q9UQB9)
EPHA1 = EPHA1 (Homo sapiens, UniProt P21709)
NEK3 = NEK3 (Homo sapiens, UniProt P51956)
SNARK = biological target: T2, SNARK (Homo sapiens, UniProt Q9H093)
T2 construct: gene NUAK2

SNRK = SNRK (Homo sapiens, UniProt Q9NRH2)
MLK2 = biological target: T3, MLK2 (Homo sapiens, UniProt Q02779)
T3 construct: gene MAP3K10

AAK1 = AAK1 (Homo sapiens, UniProt Q2M2I8)
LRRK2 = LRRK2 (Homo sapiens, UniProt Q5S007)
[1] = biological target: T4, JAK3(JH1domain-catalytic) (Homo sapiens, UniProt P52333)
T4 construct: JH1domain-catalytic

RIPK2 = RIPK2 (Homo sapiens, UniProt O43353)
MEK6 = biological target: T5, MEK6 (Homo sapiens, UniProt P52564)
T5 construct: gene MAP2K6

ACVR1 = ACVR1 (Homo sapiens, UniProt Q04771)
PRKCQ = PRKCQ (Homo sapiens, UniProt Q04759)
EPHA7 = EPHA7 (Homo sapiens, UniProt Q15375)
PIM1 = PIM1 (Homo sapiens, UniProt P11309)
DYRK1A = DYRK1A (Homo sapiens, UniProt Q13627)
CAMK4 = CAMK4 (Homo sapiens, UniProt Q16566)
PHKG1 = PHKG1 (Homo sapiens, UniProt Q16816)
STK33 = STK33 (Homo sapiens, UniProt Q9BYT3)
GRK4 = GRK4 (Homo sapiens, UniProt P32298)
PRKCD = PRKCD (Homo sapiens, UniProt Q05655)
TNK2 = TNK2 (Homo sapiens, UniProt Q07912)
Chain of TNK2 (Q07912 whole entry): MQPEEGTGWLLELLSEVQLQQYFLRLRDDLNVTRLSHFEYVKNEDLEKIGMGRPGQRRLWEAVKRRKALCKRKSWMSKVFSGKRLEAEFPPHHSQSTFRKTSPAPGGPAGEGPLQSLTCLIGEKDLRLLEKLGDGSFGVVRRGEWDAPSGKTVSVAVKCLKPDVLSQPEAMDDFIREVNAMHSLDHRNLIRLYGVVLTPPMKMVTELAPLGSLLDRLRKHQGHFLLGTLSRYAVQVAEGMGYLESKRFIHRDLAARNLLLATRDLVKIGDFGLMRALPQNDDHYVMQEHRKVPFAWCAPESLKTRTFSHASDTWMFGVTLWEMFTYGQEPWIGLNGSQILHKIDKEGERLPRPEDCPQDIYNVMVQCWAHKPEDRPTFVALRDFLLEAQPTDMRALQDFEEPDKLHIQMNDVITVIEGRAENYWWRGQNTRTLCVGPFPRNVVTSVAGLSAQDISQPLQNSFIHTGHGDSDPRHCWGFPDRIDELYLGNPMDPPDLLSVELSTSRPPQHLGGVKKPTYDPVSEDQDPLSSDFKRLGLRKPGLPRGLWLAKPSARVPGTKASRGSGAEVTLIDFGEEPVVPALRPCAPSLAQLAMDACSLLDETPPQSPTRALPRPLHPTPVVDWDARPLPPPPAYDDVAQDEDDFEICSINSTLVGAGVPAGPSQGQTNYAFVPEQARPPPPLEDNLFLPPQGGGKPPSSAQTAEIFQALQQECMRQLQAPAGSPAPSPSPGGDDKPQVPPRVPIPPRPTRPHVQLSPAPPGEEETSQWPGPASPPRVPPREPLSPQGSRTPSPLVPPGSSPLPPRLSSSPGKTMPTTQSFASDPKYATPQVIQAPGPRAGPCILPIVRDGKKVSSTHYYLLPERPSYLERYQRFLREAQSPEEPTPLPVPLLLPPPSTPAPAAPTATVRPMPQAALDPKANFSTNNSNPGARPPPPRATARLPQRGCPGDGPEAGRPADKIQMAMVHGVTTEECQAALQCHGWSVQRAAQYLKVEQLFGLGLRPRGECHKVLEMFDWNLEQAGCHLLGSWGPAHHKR

Chain of RIPK2 (O43353 whole entry): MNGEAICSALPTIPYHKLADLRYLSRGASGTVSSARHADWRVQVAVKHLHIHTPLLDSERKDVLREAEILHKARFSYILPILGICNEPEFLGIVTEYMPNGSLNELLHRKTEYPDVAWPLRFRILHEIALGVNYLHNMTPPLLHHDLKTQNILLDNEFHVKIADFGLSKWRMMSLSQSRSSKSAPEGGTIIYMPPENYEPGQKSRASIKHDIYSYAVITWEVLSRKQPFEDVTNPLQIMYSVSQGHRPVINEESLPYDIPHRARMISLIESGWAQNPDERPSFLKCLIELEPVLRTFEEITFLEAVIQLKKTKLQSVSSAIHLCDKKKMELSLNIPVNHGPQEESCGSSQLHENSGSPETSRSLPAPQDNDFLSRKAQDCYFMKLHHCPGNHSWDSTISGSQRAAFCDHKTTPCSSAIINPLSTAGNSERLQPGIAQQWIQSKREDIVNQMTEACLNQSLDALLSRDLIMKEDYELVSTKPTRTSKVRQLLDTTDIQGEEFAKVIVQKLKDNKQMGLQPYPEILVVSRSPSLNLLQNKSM
T4 sequence (P52333 whole entry): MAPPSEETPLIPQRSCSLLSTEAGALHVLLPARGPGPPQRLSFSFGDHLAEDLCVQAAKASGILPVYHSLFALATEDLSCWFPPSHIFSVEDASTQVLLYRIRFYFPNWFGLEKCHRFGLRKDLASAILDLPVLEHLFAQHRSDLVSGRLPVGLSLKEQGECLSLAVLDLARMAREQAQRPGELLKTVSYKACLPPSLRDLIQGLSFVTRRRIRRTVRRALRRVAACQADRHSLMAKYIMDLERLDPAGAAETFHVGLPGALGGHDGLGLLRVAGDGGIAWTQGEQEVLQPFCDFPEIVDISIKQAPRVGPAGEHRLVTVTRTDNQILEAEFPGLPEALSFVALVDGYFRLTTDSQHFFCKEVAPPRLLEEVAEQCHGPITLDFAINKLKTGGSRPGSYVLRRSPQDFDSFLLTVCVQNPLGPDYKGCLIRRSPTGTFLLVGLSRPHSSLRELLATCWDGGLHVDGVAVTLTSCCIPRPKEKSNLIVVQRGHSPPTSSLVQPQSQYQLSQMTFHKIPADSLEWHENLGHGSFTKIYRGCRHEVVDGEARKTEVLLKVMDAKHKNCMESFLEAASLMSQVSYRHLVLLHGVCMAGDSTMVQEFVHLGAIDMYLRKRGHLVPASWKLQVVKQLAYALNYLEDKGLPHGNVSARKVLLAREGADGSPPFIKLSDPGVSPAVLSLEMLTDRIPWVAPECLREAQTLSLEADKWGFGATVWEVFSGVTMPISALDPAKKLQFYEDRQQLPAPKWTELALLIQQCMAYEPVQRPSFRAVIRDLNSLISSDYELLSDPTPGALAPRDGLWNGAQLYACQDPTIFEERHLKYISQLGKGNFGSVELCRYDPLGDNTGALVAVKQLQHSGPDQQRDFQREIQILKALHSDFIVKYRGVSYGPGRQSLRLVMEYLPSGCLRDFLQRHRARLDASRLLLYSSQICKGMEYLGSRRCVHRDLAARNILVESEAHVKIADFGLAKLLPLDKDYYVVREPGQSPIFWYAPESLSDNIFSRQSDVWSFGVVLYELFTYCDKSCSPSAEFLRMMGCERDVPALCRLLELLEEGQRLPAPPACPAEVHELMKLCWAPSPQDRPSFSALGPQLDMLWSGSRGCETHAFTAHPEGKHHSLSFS
Chain of PRKCQ (Q04759 whole entry): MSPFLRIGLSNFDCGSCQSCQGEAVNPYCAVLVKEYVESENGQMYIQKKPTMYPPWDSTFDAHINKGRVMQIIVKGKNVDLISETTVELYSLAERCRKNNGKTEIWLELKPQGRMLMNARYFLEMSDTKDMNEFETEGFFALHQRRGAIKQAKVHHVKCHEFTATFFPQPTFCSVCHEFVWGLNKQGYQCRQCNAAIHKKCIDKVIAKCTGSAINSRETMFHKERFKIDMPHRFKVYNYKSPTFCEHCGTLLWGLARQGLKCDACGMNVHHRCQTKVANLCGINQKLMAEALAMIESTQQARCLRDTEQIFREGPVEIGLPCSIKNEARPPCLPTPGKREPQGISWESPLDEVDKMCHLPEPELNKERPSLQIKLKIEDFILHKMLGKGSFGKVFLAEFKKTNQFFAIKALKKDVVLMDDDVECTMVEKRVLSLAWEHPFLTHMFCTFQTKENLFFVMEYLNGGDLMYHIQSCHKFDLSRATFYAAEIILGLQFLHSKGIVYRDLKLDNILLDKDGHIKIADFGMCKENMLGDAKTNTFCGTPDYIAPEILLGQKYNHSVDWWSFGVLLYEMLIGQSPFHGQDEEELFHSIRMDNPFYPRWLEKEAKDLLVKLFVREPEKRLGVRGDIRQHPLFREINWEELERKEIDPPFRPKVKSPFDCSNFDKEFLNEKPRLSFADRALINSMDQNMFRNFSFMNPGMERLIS
Chain of PIM1 (P11309 whole entry): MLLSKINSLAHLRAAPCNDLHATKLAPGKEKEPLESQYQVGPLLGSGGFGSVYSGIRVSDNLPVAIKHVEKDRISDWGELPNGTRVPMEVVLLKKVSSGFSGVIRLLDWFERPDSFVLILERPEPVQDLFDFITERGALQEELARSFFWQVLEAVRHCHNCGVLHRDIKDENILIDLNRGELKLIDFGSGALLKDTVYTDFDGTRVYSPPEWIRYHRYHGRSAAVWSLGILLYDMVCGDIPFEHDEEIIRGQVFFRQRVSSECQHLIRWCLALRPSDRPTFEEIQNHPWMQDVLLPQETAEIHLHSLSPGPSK
T2 sequence (Q9H093 whole entry): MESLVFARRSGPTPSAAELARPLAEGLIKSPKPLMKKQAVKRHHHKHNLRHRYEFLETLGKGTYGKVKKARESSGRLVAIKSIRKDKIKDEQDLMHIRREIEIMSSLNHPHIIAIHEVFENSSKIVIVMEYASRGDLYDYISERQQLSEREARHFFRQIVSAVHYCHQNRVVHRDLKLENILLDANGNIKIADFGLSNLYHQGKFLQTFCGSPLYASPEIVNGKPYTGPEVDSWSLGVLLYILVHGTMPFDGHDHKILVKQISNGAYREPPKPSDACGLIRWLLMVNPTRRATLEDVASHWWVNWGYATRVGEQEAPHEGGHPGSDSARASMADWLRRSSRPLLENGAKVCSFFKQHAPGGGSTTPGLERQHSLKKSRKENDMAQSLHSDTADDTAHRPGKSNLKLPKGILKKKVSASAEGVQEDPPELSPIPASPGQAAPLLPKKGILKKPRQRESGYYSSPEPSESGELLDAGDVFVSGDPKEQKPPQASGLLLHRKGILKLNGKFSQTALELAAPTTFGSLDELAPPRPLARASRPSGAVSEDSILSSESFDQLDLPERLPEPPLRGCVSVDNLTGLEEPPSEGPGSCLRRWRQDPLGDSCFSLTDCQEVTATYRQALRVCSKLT
Chain of STK33 (Q9BYT3 whole entry): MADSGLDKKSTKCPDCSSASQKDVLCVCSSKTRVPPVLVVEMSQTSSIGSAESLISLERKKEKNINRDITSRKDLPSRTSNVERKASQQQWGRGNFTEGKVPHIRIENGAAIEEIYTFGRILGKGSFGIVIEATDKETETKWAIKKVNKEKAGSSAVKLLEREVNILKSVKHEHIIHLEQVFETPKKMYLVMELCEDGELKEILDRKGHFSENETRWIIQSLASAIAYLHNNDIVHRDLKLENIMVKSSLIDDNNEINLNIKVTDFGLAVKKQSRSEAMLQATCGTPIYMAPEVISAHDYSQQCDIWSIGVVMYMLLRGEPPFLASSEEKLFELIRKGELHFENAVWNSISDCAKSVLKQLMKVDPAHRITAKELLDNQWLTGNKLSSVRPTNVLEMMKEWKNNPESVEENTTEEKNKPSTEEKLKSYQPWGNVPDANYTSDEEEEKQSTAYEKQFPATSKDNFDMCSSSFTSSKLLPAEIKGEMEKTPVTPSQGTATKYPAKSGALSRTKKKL

Which remaining binding at 10 µM (JNK2) does the source give for `COc1ccc(-c2cnccc2-c2cnc(NC(=O)C(C)C)s2)c(C(F)(F)F)c1` [CRT0105446, N-{5-[3-(4-Methoxy-2-trifluoromethyl-phenyl)-pyridin-4-yl]-hiazol-2-yl}-isobutyramide] here?
The remaining binding at 10 µM was 50%.

What about the remaining binding at 10 µM (AURKC) of the same molecule?
The remaining binding at 10 µM was 88%.

What about the remaining binding at 10 µM (EPHA1) of the same molecule?
Its remaining binding at 10 µM is 100%.

What about the remaining binding at 10 µM (NEK3) of the same molecule?
Its remaining binding at 10 µM is 100%.

And the remaining binding at 10 µM (SNARK)?
The remaining binding at 10 µM was 84%.

And the remaining binding at 10 µM (SNRK)?
Its remaining binding at 10 µM is 81%.

What about the remaining binding at 10 µM (MLK2) of the same molecule?
The remaining binding at 10 µM was 69%.

And the remaining binding at 10 µM (AAK1)?
Its remaining binding at 10 µM is 78%.

What about the remaining binding at 10 µM (LRRK2) of the same molecule?
The remaining binding at 10 µM was 91%.

What about the remaining binding at 10 µM [1] of the same molecule?
The remaining binding at 10 µM was 100%.

And the remaining binding at 10 µM (RIPK2)?
Its remaining binding at 10 µM is 80%.

And the remaining binding at 10 µM (MEK6)?
The remaining binding at 10 µM was 100%.

And the remaining binding at 10 µM (ACVR1)?
Its remaining binding at 10 µM is 100%.

And the remaining binding at 10 µM (PRKCQ)?
Its remaining binding at 10 µM is 74%.

What about the remaining binding at 10 µM (EPHA7) of the same molecule?
Its remaining binding at 10 µM is 94%.

What about the remaining binding at 10 µM (PIM1) of the same molecule?
Its remaining binding at 10 µM is 96%.

And the remaining binding at 10 µM (DYRK1A)?
The remaining binding at 10 µM was 76%.

What about the remaining binding at 10 µM (CAMK4) of the same molecule?
The remaining binding at 10 µM was 98%.

And the remaining binding at 10 µM (PHKG1)?
Its remaining binding at 10 µM is 78%.

And the remaining binding at 10 µM (STK33)?
The remaining binding at 10 µM was 100%.

And the remaining binding at 10 µM (GRK4)?
The remaining binding at 10 µM was 100%.

What about the remaining binding at 10 µM (PRKCD) of the same molecule?
Its remaining binding at 10 µM is 90%.

What about the remaining binding at 10 µM (TNK2) of the same molecule?
The remaining binding at 10 µM was 91%.

For `Cc1ccc(-c2cnccc2-c2cnc(Nc3ccc(O)cc3)s2)c(Cl)c1` [CRT0105950, 4-{5-[3-(2-Chloro-4-methyl-phenyl)-pyridin-4-yl]-thiazol-2-ylamino}-phenol], which remaining binding at 10 µM (JNK2) is on record?
Its remaining binding at 10 µM is 30%.

What about the remaining binding at 10 µM (AURKC) of the same molecule?
Its remaining binding at 10 µM is 3.8%.

What about the remaining binding at 10 µM (EPHA1) of the same molecule?
Its remaining binding at 10 µM is 74%.

And the remaining binding at 10 µM (NEK3)?
Its remaining binding at 10 µM is 88%.

And the remaining binding at 10 µM (SNARK)?
The remaining binding at 10 µM was 31%.

What about the remaining binding at 10 µM (SNRK) of the same molecule?
The remaining binding at 10 µM was 100%.

And the remaining binding at 10 µM (MLK2)?
Its remaining binding at 10 µM is 40%.

And the remaining binding at 10 µM (AAK1)?
Its remaining binding at 10 µM is 51%.

What about the remaining binding at 10 µM (LRRK2) of the same molecule?
The remaining binding at 10 µM was 54%.

What about the remaining binding at 10 µM [1] of the same molecule?
The remaining binding at 10 µM was 33%.

And the remaining binding at 10 µM (RIPK2)?
The remaining binding at 10 µM was 18%.

What about the remaining binding at 10 µM (MEK6) of the same molecule?
Its remaining binding at 10 µM is 20%.

And the remaining binding at 10 µM (ACVR1)?
Its remaining binding at 10 µM is 52%.

What about the remaining binding at 10 µM (PRKCQ) of the same molecule?
The remaining binding at 10 µM was 13%.

And the remaining binding at 10 µM (EPHA7)?
The remaining binding at 10 µM was 83%.

And the remaining binding at 10 µM (PIM1)?
The remaining binding at 10 µM was 76%.

And the remaining binding at 10 µM (DYRK1A)?
The remaining binding at 10 µM was 30%.

What about the remaining binding at 10 µM (CAMK4) of the same molecule?
The remaining binding at 10 µM was 90%.

And the remaining binding at 10 µM (PHKG1)?
Its remaining binding at 10 µM is 56%.

What about the remaining binding at 10 µM (STK33) of the same molecule?
The remaining binding at 10 µM was 100%.

What about the remaining binding at 10 µM (GRK4) of the same molecule?
Its remaining binding at 10 µM is 89%.

What about the remaining binding at 10 µM (PRKCD) of the same molecule?
Its remaining binding at 10 µM is 76%.

And the remaining binding at 10 µM (TNK2)?
The remaining binding at 10 µM was 25%.
